Assay results taken from PubChem BioAssay (NCI).
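The concentration for 50% growth inhibition is given as GI50. TGI: total growth inhibition.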

Legend:
Test in all cases: NCI anticancer screen, dose series, 384-well format
[1] = system: EKVX NSCLC
[2] = system: MDA-MB-435 melanoma
[3] = system: NCI-H322M lung
[4] = system: CCRF-CEM leukemia
[5] = system: HCT-15 colon
[6] = system: PC-3 prostate
[7] = system: NCI-H522 lung
[8] = system: SK-MEL-28 melanoma
[9] = system: NCI/ADR-RES ovarian
[10] = system: HL-60(TB) leukemia
[11] = system: HT29 colon
[12] = system: DU-145 prostate
[13] = system: SNB-75 CNS
[14] = system: SNB-19 CNS
[15] = system: T-47D breast
[16] = system: RXF 393 renal
[17] = system: OVCAR-4 ovarian
[18] = system: OVCAR-3 ovarian
[19] = system: OVCAR-5 ovarian
[20] = system: ACHN renal
[21] = system: MALME-3M melanoma
[22] = system: M14 melanoma
[23] = system: RPMI-8226 leukemia
[24] = system: A498 renal
[25] = system: MDA-MB-468 breast
[26] = system: SW-620 colon
[27] = system: NCI-H226 lung
[28] = system: HOP-92 NSCLC
[29] = system: NCI-H23 lung
[30] = system: K-562 leukemia
[31] = system: SN12C renal
[32] = system: MDA-MB-231 breast
[33] = system: A549 NSCLC
[34] = system: HCT-116 colon
[35] = system: COLO 205 colon
[36] = system: HOP-62 NSCLC
[37] = system: OVCAR-8 ovarian
[38] = system: NCI-H460 NSCLC
[39] = system: CAKI-1 renal
[40] = system: TK-10 renal
[41] = system: BT-549 breast
[42] = system: SF-268 CNS
[43] = system: UACC-257 melanoma
[44] = system: SK-MEL-2 melanoma
[45] = system: SK-OV-3 ovarian
[46] = system: SR leukemia
[47] = system: UACC-62 melanoma
[48] = system: SF-539 CNS
[49] = system: KM12 colon
[50] = system: HCC-2998 colon
[51] = system: MOLT-4 leukemia
[52] = system: 786-0 renal
[53] = system: IGROV1 ovarian
[54] = system: SK-MEL-5 melanoma
[55] = system: U251 glioblastoma
[56] = system: HS 578T breast
[57] = system: MCF7 breast
[58] = system: SF-295 CNS

`C[C@@]1(c2ncncc2F)NC(=O)c2cc(-c3cn[nH]c3)ccc21` was tested, and the GI50 [1] was 16.7 µM, the TGI [1] was 42.5 µM and the GI50 [2] was 15.7 µM. For the same compound, the TGI [2] was 38.3 µM, the GI50 [3] was 22.4 µM and the TGI [3] was 58.4 µM. For the same compound, the GI50 [4] was 2.74 µM, the TGI [4] was 7.58 µM and the GI50 [5] was 15.9 µM. For the same compound, the TGI [5] was > 83.9 µM, the GI50 [6] was 21.6 µM and the TGI [6] was 71.1 µM. It also gave a GI50 [7] of 4.74 µM, a TGI [7] of 38.6 µM and a GI50 [8] of 11.8 µM. The TGI [8] was 27.6 µM, the GI50 [9] was 62.6 µM and the TGI [9] was > 100 µM. The GI50 [10] was 5.53 µM, the TGI [10] was 16.7 µM and the GI50 [11] was 5.11 µM. The TGI [11] was 25.4 µM, the GI50 [12] was 16.2 µM and the TGI [12] was > 100 µM. It also gave a GI50 [13] of 14.1 µM, a TGI [13] of 28.4 µM and a GI50 [14] of 28.8 µM. The TGI [14] was > 100 µM, the GI50 [15] was 30.9 µM and the TGI [15] was 82.1 µM. The GI50 [16] was 25.3 µM, the TGI [16] was 42.4 µM and the GI50 [17] was 42 µM. It also gave a TGI [17] of 88.8 µM, a GI50 [18] of 22.2 µM and a TGI [18] of 52.4 µM. The GI50 [19] was 16.3 µM, the TGI [19] was 50.2 µM and the GI50 [20] was 20.9 µM. For the same compound, the TGI [20] was 69.8 µM, the GI50 [21] was 2.77 µM and the TGI [21] was 14.4 µM. For the same compound, the GI50 [22] was 5.45 µM, the TGI [22] was 22 µM and the GI50 [23] was 24 µM. For the same compound, the TGI [23] was 41.3 µM, the GI50 [24] was 10.9 µM and the TGI [24] was > 92 µM. For the same compound, the GI50 [25] was 5.03 µM, the TGI [25] was 14.4 µM and the GI50 [26] was 2.03 µM. For the same compound, the TGI [26] was 5.93 µM, the GI50 [27] was 18.4 µM and the TGI [27] was 60.7 µM. The GI50 [28] was 19.4 µM, the TGI [28] was 47.5 µM and the GI50 [29] was 10.4 µM. The TGI [29] was 25.2 µM, the GI50 [30] was 11.2 µM and the TGI [30] was > 100 µM. For the same compound, the GI50 [31] was 17.3 µM, the TGI [31] was 49.9 µM and the GI50 [32] was 14.9 µM. For the same compound, the TGI [32] was 33.1 µM, the GI50 [33] was 17.3 µM and the TGI [33] was > 100 µM. For the same compound, the GI50 [34] was 6.88 µM, the TGI [34] was > 100 µM and the GI50 [35] was 2.01 µM. For the same compound, the TGI [35] was 4.03 µM, the GI50 [36] was 16 µM and the TGI [36] was 50.8 µM. The GI50 [37] was 25.8 µM, the TGI [37] was 82.6 µM and the GI50 [38] was 15.5 µM. For the same compound, the TGI [38] was 41.6 µM, the GI50 [39] was 20.1 µM and the TGI [39] was 63.4 µM. The GI50 [40] was 15.8 µM, the TGI [40] was 36 µM and the GI50 [41] was 9.62 µM. For the same compound, the TGI [41] was 24.2 µM, the GI50 [42] was 13 µM and the TGI [42] was 31 µM. It also gave a GI50 [43] of 17.8 µM, a TGI [43] of 44.9 µM and a GI50 [44] of 31.8 µM. For the same compound, the TGI [44] was 54 µM, the GI50 [45] was 28.9 µM and the TGI [45] was > 71.3 µM. For the same compound, the GI50 [46] was 2.56 µM, the TGI [46] was 5.45 µM and the GI50 [47] was 12.2 µM. The TGI [47] was 28.8 µM, the GI50 [48] was 12.1 µM and the TGI [48] was 29.1 µM. For the same compound, the GI50 [49] was 15.8 µM, the TGI [49] was 35.1 µM and the GI50 [50] was 12.6 µM. For the same compound, the TGI [50] was 34.3 µM, the GI50 [51] was 13.8 µM and the TGI [51] was 27.8 µM. For the same compound, the GI50 [52] was 16 µM, the TGI [52] was 35.1 µM and the GI50 [53] was 20.5 µM. The TGI [53] was 56.1 µM, the GI50 [54] was 13 µM and the TGI [54] was 31 µM. For the same compound, the GI50 [55] was 11.1 µM, the TGI [55] was 48.4 µM and the GI50 [56] was 18.4 µM. For the same compound, the TGI [56] was 35.2 µM, the GI50 [57] was 26.6 µM and the TGI [57] was > 83 µM. The GI50 [58] was 28.5 µM and the TGI [58] was > 85 µM.
